From patent US10201165B2 (Board of Trustees of Michigan State University, priority 2014, dated 2019)
Where two headings read alike, the source gives them in different places.

Assays:
fungi [1] = assay: Antifungal activity (test not specified); conditions: compound identified from leaves of Prunus maackii
Cladosporium cucumerinum = assay: TLC bioassay for detection of antimicrobial activity; type: cell-based; conditions: FIG. 3, white areas
Method: A TLC-bioassay of extract from Prunus maackii, P. serotina, and P. mahelab was conducted using three different extraction methods. Periderm tissue was extracted in 80% acetone, in hot water, or in water in an autoclave. Extracts were tested for antimicrobial activity by a thin layer chromatography bioassay on cellulose TLC plates. Samples were separated with, and the plates were developed in, water.
For the TLC bioassay for the detection of antimicrobial activity, 5 μL of the samples (column fractions, suspended in 80% methanol) were applied to Analtech® silica gel (TLC) plates and were developed in a TLC tank (30×20×10 cm) using 100 mL of chloroform:methanol (8.5:1, v/v). Within 24 hours of developing the TLC plates, the plates were evenly sprayed with a dense fungal suspension of C. cucumerinum in ½ strength potato-dextrose broth and then placed in a moist incubation chamber for three days to allow fungal growth.

fungi [2] = conditions: compound tentatively assigned to HPLC-MS peak around 255 g/mol; cited from earlier work

COc1c(O)cc(O)c2c1OC(c1ccccc1)CC2=O (stereo not drawn) [Dihydrowogonin, 5,7-dihydroxy-8-methoxy-2-phenyl-2,3-dihydrochromen-4-one]
Antifungal activity (fungi [1]): antifungal activity

COc1c(O)cc2oc(-c3ccccc3)c(O)c(=O)c2c1O [alnusin, 3,5,7-trihydroxy-6-methoxyflavone]
Fungal inhibition on TLC plate by isolated compounds (Cladosporium cucumerinum): fungal inhibition

O=C1C[C@@H](c2ccccc2)Oc2cc(O)cc(O)c21 [pinocembrin]
Antifungal activity (fungi [2]): antifungal activity
